The values below come from patent US8013187B2, “2-cyclopenten-1-one oxime derivatives inhibiting production of TNF-α” (Amorepacific Corporation, priority 2004, dated 2011).

≈ marks a conversion by molar mass, not a printed value.

As usually defined, the melting point is the temperature, or range, at which the solid turns liquid. By inhibition is commonly meant the change of the read-out against control, counted positive when it falls. The term IC50 denotes the concentration needed to halve the response being measured. As usually defined, the inhibition in vivo is the change of the read-out against control, counted positive when it falls.

Data set [1] concerns production of TNF-α in rat PBMCs. Nature of the data set: Inhibition of TNF-α production in rat PBMCs (LPS/IFN-γ stimulated, ELISA). The settings on record: PBMC; for IC50: rat PBMCs, LPS + IFN-γ, 18 hours; for inhibition at 3 µg/mL: @ 3 μg/ml. The format is cell-based. How it is done: (§1) Compounds of this invention were evaluated for their ability to inhibit the production of TNF-α in stimulated immune cells. […] Compounds of the present invention were evaluated for their therapeutic activity in animal models for inflammatory or immunological disorders. Also compounds of this invention were assayed for their ability to inhibit PDE4 isozymes.
Inhibition of TNF-α Production in Rat PBMCs: Compounds of the present invention were evaluated for their ability to inhibit the production of TNF-α in rat peripheral blood mononuclear cells (PBMCs) as described in the literature. [Exp. Geront. vol 37, 235-247 (2002)] In brief, 6 ml rat blood drawn from the abdominal vein as treated with ACD (acid/citrate/dextrose) was carefully added in a tube containing 6 ml Ficoll 1077, and the tube was centrifuged for 30 min at 1500 rpm (415 G) at room temperature. The cell fraction (middle fraction) was suspended in a 50 ml tube containing phosphate buffered saline (PBS). The tube was centrifuged for 5 min at 2000 rpm (737 G). The resulting pellet was suspended in 6 ml PBS and 6 ml Ficoll 1077, and centrifuged for 30 min at 1500 rpm (415 G) at room temperature to remove remaining plasma. The cell fraction was suspended in PBS and centrifuged for 5 min at 2000 rpm. Such a washing was repeated twice. Then the collected cells were suspended in 10 ml RPMI-1640 containing 10% FBS and further diluted to contain 4×10^6 cells per ml. The cell suspension was dispensed into a 96-well plate at 100 μl per well, which was pre-supplemented with 1 μl of either DMSO (placebo) or a DMSO stock solution containing a designated concentration of a compound of this invention. The plate was cultured for an hour at 37° C. under 5% CO2 and 95% O2. To each well, was added 100 μl RPMI-1640 containing 0.1 μg/ml LPS, 5 U/ml IFN-γ, and 10% FBS. Then the plate was subjected to a culture for 18 hours at 37° C. under 5% CO2 and 95% O2. An aliquot of the supernatant from each well was subjected to an ELISA assay to determine the TNF-α level in the well.
A general note: ELISA stands for enzyme-linked immunosorbent assay.

The test system of data set [2] is production of TNF-α in human PBMCs. Briefly: Inhibition of TNF-α production in human PBMCs (ELISA). The settings on record: PBMC. The class given is cell-based. The method, then:
as §1
Inhibition of TNF-α Production in Human PBMCs: Compounds of the present invention were evaluated for their ability to inhibit the production of TNF-α in human PBMCs as described in the literature. [J. Med. Chem. vol 39, 3238-3240 (1996)] Blood was freshly drawn from healthy human subjects as treated with ACD to isolate human PBMCs according to the procedure employed for rat PBMCs. The employed assay method for the ELISA against human TNF-α was essentially identical to that for the rat TNF-α ELISA assay.

Data set [3] has as its system production of TNF-α in mice stimulated with LPS. Nature of the data set: In vivo inhibition of TNF-α production in mice stimulated with LPS. The settings on record: Mus musculus, 2 h, LPS i.p., plasma at hour 2, read-out: % Inhibition of in vivo TNF-α production @ dose; for inhibition in vivo at 3 mg/kg: 3 mg/kg oral gavage. The method, then:
[J. Pharmacol. Exp. Therapeut. vol 279, 1453-1461 (1996)] In brief, either a compound of the instant invention with vehicle or vehicle only (5% Tween 80) was administered by oral gavage (10 ml/kg body weight) at hour 0 to mice (Balb/C or ICR, 25˜30 g) fasted overnight. The mice were subjected to a peritoneal injection with […] LPS per mouse at hour 0.5, and blood was drawn from the abdominal vein at hour 2 following euthanasia with CO2. Then plasma separated from the drawn blood by centrifugation was subjected to an ELISA assay to measure the level of TNF-α.

`O=[N+]([O-])c1cccc(C2=C(C3CCCC3)CCC2=NO)c1` [Example 4, 3-cyclopentyl-2-(3-nitrophenyl)-2-cyclopenten-1-one oxime] returned a melting point of 162 to 163 °C.
`Cc1ccc(C2=C(C3CCCC3)CCC2=NO)cc1[N+](=O)[O-]` [Example 5, 3-cyclopentyl-2-(4-methyl-3-nitrophenyl)-2-cyclopenten-1-one oxime] registered a melting point of 178 to 180 °C. In data set [1] (Rattus norvegicus, @ 0.3 μg/ml), this compound returned an inhibition at 0.3 µg/mL of 66%.
`N#Cc1cccc(C2=C(C3CCCC3)CCC2=NO)c1` [Example 12, 2-(3-cyanophenyl)-3-cyclopentyl-2-cyclopenten-1-one oxime] returned a melting point of 180 to 182 °C. Besides, the IC50 in data set [1] is 0.1 µg/mL. Besides, the IC50 in data set [2] was 0.16 µg/mL (≈ 0.601 µM).
For the compound `N#Cc1cc(C2=C(C3CCCC3)CCC2=NO)ccc1F` [Example 13, 2-(3-cyano-4-fluorophenyl)-3-cyclopentyl-2-cyclopenten-1-one oxime], the melting point fell in the range of 167 to 168 °C. Moreover, in data set [1], the IC50 came out at 0.4 µg/mL. The inhibition in vivo at 0.3 mg/kg in data set [3] (0.3 mg/kg oral gavage) worked out at 70%.
With `C=Cc1ccc(C2=C(C3CCCC3)CCC2=NO)cc1` [Example 18, 3-cyclopentyl-2-(4-vinylphenyl)-2-cyclopenten-1-one oxime], the melting point is 177 to 179 °C. In addition, in data set [1] (Rattus norvegicus), at 3 µg/mL the inhibition was 78%.
`ON=C1CCC(C2CCCC2)=C1c1cccc2c1oc1ccccc12` [Example 19, 3-cyclopentyl-2-(4-dibenzofuranyl)-2-cyclopenten-1-one oxime] displayed a melting point of 195 to 200 °C. The IC50 in data set [1] was 1 µg/mL.
Consider `CS(=O)(=O)c1cccc(C2=C(C3CCCC3)CCC2=NO)c1` [Example 23, 3-cyclopentyl-2-(3-methylsulfonylphenyl)-2-cyclopenten-1-one oxime], for which the melting point fell in the range of 164 to 165 °C. Moreover, in data set [1], the IC50 is 1.2 µg/mL.
Compound `ON=C1CCC(C2CCCC2)=C1c1cccc(O)c1` [Example 24, 3-cyclopentyl-2-(3-hydroxyphenyl)-2-cyclopenten-1-one oxime] gave a melting point of 207 to 209 °C.
With `OCc1cccc(C2=C(C3CCCC3)CCC2=NO)c1` [Example 25, 3-cyclopentyl-2-(3-hydroxymethylphenyl)-2-cyclopenten-1-one oxime], in data set [1], the IC50 was found to be 1.5 µg/mL.
Take `OCc1ccc(C2=C(C3CCCC3)CCC2=NO)cc1` [Example 26, 3-cyclopentyl-2-(4-hydroxymethylphenyl)-2-cyclopenten-1-one oxime]: the melting point is 187 to 190 °C.
On to `ON=C1CCC(C2CCCCC2)=C1c1ccc(F)cc1` [Example 27, 3-cyclohexyl-2-(4-fluorophenyl)-2-cyclopenten-1-one oxime], for which the melting point was in the range of 173 to 176 °C. Further, the IC50 in data set [1] worked out at 0.34 µg/mL. Also, the inhibition in vivo at 3 mg/kg in data set [3] amounted to 87%.
Take `ON=C1CCC(C2CCCCC2)=C1c1ccc(F)c(F)c1` [Example 30, 3-cyclohexyl-2-(3,4-difluorophenyl)-2-cyclopenten-1-one oxime]: the IC50 in data set [1] is under 0.1 µg/mL.
`O=[N+]([O-])c1cccc(C2=C(C3CCCCC3)CCC2=NO)c1` [Example 31, 3-cyclohexyl-2-(3-nitrophenyl)-2-cyclopenten-1-one oxime] registered a melting point of 201 to 202 °C.
Turning to `COc1cccc(C2=C(C3CCCCC3)CCC2=NO)c1` [Example 32, 3-cyclohexyl-2-(3-methoxyphenyl)-2-cyclopenten-1-one oxime], the melting point lay within 149 to 150 °C. Moreover, the IC50 in data set [1] was determined as 0.49 µg/mL. In addition, in data set [3], the inhibition in vivo at 3 mg/kg turned out to be 92%.
As for `CCCCC1=C(c2ccc(F)cc2)C(=NO)CC1` [Example 33, 3-butyl-2-(4-fluorophenyl)-2-cyclopenten-1-one oxime], the melting point fell in the range of 115 to 116 °C. In addition, the IC50 in data set [1] was determined as 2 µg/mL.
Turning to `CCCCC1=C(c2ccc(F)c(F)c2)C(=NO)CC1` [Example 34, 3-butyl-2-(3,4-difluorophenyl)-2-cyclopenten-1-one oxime], the IC50 in data set [1] was 0.3 µg/mL.
`CCCCC1=C(c2ccc(O)c(F)c2)C(=NO)CC1` [Example 41, 3-butyl-2-(3-fluoro-4-hydroxyphenyl)-2-cyclopenten-1-one oxime]: the melting point lay within 141 to 147 °C.
The compound `CCCCC1=C(c2cccc(C(F)(F)F)c2)C(=NO)CC1` [Example 58, 3-butyl-2-{3-(trifluoromethyl)phenyl}-2-cyclopenten-1-one oxime] yielded a melting point of 65 to 67 °C. In data set [1] (Rattus norvegicus), this compound registered an inhibition at 3 µg/mL of 59%.
As for `CCCCCC1=C(c2ccc(F)cc2)C(=NO)CC1` [Example 65, 2-(4-fluorophenyl)-3-pentyl-2-cyclopenten-1-one oxime], the melting point fell in the range of 101 to 102 °C. Further, the IC50 in data set [1] is about 1 µg/mL. For the same compound, in data set [2], half-maximal inhibition (IC50) required 1.2 µg/mL (≈ 4.59 µM).
For the compound `CCCCCC1=C(c2ccccc2)C(=NO)CC1` [Example 66, 3-pentyl-2-phenyl-2-cyclopenten-1-one oxime], the melting point fell in the range of 110 to 111 °C. Besides, the IC50 in data set [1] fell in the range of 1 to 3 µg/mL. In addition, the inhibition in vivo at 3 mg/kg in data set [3] turned out to be 45%.
Consider `CCCCCC1=C(c2cccc([N+](=O)[O-])c2)C(=NO)CC1` [Example 71, 2-(3-nitrophenyl)-3-pentyl-2-cyclopenten-1-one oxime], for which the melting point was 79 to 80 °C.
`CCCCCC1=C(c2ccsc2)C(=NO)CC1` [Example 77, 3-pentyl-2-(3-thienyl)-2-cyclopenten-1-one oxime]: the melting point is 105 to 106 °C. Further, the 50% inhibitory concentration (IC50) in data set [1] turned out to be 2.8 µg/mL.
Compound `CCCC1=C(c2ccc(F)cc2)C(=NO)CC1` [Example 78, 2-(4-fluorophenyl)-3-propyl-2-cyclopenten-1-one oxime] gave a melting point of 165 to 166 °C. In addition, in data set [1], the IC50 came out at 0.62 µg/mL.
For the compound `CCCC1=C(c2cccc([N+](=O)[O-])c2)C(=NO)CC1` [Example 80, 2-(3-nitrophenyl)-3-propyl-2-cyclopenten-1-one oxime], in data set [1], the IC50 amounted to 0.2 µg/mL. The inhibition in vivo at 3 mg/kg in data set [3] is 95%.
As for `CCC1=C(c2ccc(F)cc2)C(=NO)CC1` [Example 81, 3-ethyl-2-(4-fluorophenyl)-2-cyclopenten-1-one oxime], the melting point lay within 168 to 169 °C. Besides, the 50% inhibitory concentration (IC50) in data set [1] was about 3 µg/mL.
Compound `CC1=C(c2ccc(F)cc2)C(=NO)CC1` [Example 83, 2-(4-fluorophenyl)-3-methyl-2-cyclopenten-1-one oxime] registered a melting point of 170 to 171 °C. Besides, in data set [1], the IC50 is about 10 µg/mL.
Turning to `CC(C)CC1=C(c2ccc(F)cc2)C(=NO)CC1` [Example 85, 2-(4-fluorophenyl)-3-isobutyl-2-cyclopenten-1-one oxime], the melting point lay in the range of 154 to 157 °C. Moreover, the IC50 in data set [1] is 0.77 µg/mL.
The matching figures for `CC(C)CC1=C(c2ccc(F)c(F)c2)C(=NO)CC1` [Example 86, 2-(3,4-difluorophenyl)-3-isobutyl-2-cyclopenten-1-one oxime]: 136 to 139 °C and 0.27 µg/mL.
On the same counts, the results for `CC(C)CC1=C(c2cccc(C#N)c2)C(=NO)CC1` [Example 89, 2-(3-cyanophenyl)-3-isobutyl-2-cyclopenten-1-one oxime] are 138 to 140 °C and 0.09 µg/mL.
Turning to `CCCCCCCCCc1ccc(C2=C(CC(C)C)CCC2=NO)cc1F` [Example 90, 2-(3-fluoro-4-n-nonylphenyl)-3-isobutyl-2-cyclopenten-1-one oxime], the melting point is 85 to 86 °C.
